Consider four molecules from patent US20240041922A1, “METHODS AND COMPOSITIONS” (Monash University, priority 2020, published 2024).

In data set [1] the test system is larval zebrafish skeletal muscle. The data set is described as follows: Larval zebrafish muscle regeneration by birefringence imaging. The class given is in vivo. To be noted: larvae soaked in drug after needle stab injury. The protocol: 4dpf larvae were anaesthetized in 0.01% tricaine (MS-222) (Sigma-Aldrich) in Ringer's solution. Mechanical injures were targeted either to the dorsal or ventral myotome above the cloaca when the larvae is oriented dorsal to the top, anterior to the left. Needle-stick injury was carried out as previously described (Gurevich, D. B. el al. Asymmetric division of clonal muscle stem cells co-ordinate muscle regeneration in vivo. Science 353 6295 aad9969 (2016)). Briefly, the myotome was subjected to a single 30-gauge needle puncture that generates an extensive injury with many damaged muscle fibres. […]
Fixed and Immunostained cell culture samples were imaged on a Leica DMi8 inverted widefield microscope with a 10× objective. Birefringence imaging was carried out as previously described (Berger, J., Sztal, T. & Currie, P. D. Quantification of birefringence readily measures the level of muscle damage in zebrafish. Biochemical and biophysical research communications 423, 785-788 (2012)), using a Leica DM IRB upright microscope integrated with the Abrio software (CRI Hinds instruments) using a 5× objective. Images were analysed using the software Fiji^52, whereby the mean grey value of the injury site birefringence is normalised to the region before and after it to calculate relative birefringence of the wound site. […]

Data set [2] concerns wound-resident muscle stem cells. Briefly: Larval zebrafish needle stab muscle injury, wound site proliferation (EdU). The format is in vivo. To be noted: needle stab injury, agent alone. The protocol:
4dpf larvae were anaesthetized in 0.01% tricaine (MS-222) (Sigma-Aldrich) in Ringer's solution. Mechanical injures were targeted either to the dorsal or ventral myotome above the cloaca when the larvae is oriented dorsal to the top, anterior to the left. Needle-stick injury was carried out as previously described (Gurevich, D. B. el al. Asymmetric division of clonal muscle stem cells co-ordinate muscle regeneration in vivo. Science 353 6295 aad9969 (2016)). Briefly, the myotome was subjected to a single 30-gauge needle puncture that generates an extensive injury with many damaged muscle fibres. For laser-induced injury, anaesthetised larvae were mounted in a thin layer of 1% low-melt agarose in Ringer's solution. Injuries were carried out using a UV-nitrogen laser pulsed through a coumarin 440 nm dye cell coupled to a Zeiss Axioplan microscope (MicroPoint Laser System, Andor Technology). On average a laser injury required pulses for 5-10 sec from laser beams focused through a 40× water immersion objective. For time-lapse analysis of the immediate response to injury, muscle fibre ablations were achieved using a SIM scanner (Olympus) at 790 nm and 200 msec dwell time at 100% laser power on an Olympus FVMPE-RS upright multi-photon microscope equipped with a 25×/1.05 water immersion objective. Injury-responding macrophages were tracked using the manual tracking plugin in Fiji.
(§1) Cell ablation was carried out as previously described (Pisharath, H. & Parsons, M. J. in Zebrafish 133-143 (Springer, 2009)) with minor modifications. Larvae at the appropriate stage were incubated in 5-10 mM metronidazole (Mtz) (Sigma-Aldrich) in Ringer's solution and daily refreshed until experimental end point. Drug treatments were carried out by incubating 4 dpf needle stick injured larvae in 5 and 10 μM cenicriviroc (CVC) (Med Chem Express) and 5 and 10 μM maraviroc (MVC) (Med Chem Express) in Ringer's solution immediately post injury and refreshed daily.
The effect of drug treatment on laser ablation muscle injury was assayed by treating larvae with 5 μM CVC for 2 h prior to injury and with larvae being maintained in the drug until experimental end point. […] Chemokine supplementation experiments were carried out in plasticware coated with 0.1% bovine serum albumin (BSA) overnight (rinsed in Ringer's solution prior to use) to minimise protein adsorption. Larvae were treated with 57 nM recombinant human visfatin (hrNAMPT(1)) (PeproTech), 57 nM recombinant murine CCL8/MCP-2 (mrCCL8) (PeproTech) and combinations with Mtz and CVC.
Larvae: Labelling and detection was carried out as previously described (Nguyen, P. D. et al. Muscle stem cells undergo extensive clonal drift during tissue growth via Meox1-mediated induction of G2 cell-cycle arrest. Cell Stem Cell 21, 107-119. e106 (2017))^55 with minor alteration. 6 dpf/2 dpi larvae were pulsed with 2.5 nM EdU (Thermo Fisher) for 1h and chased for a further 1.5 h prior to fixation. Cell culture: Cells were incubated for 1 h in media supplemented with 10 μM EdU. Following Edu pulse, C2C12 cells were fixed immediately, while primary mouse myoblast co-cultures were rinsed in PBS, replaced with media and incubated for a further 2 h following which the cells were fixed. Cells were processed using the Click-iT™ EdU Alexa Fluro™ 647 imaging Kit (Thermo Fisher) following the manufacturer's protocol.

A further data set relates to C2C12 myoblasts. The data set is described as follows: C2C12 myoblast proliferation (EdU incorporation). The class given is cell-based, mouse. Particulars: for effect on NAMPT-induced myoblast proliferation: co-administration with NAMPT, 6 h. As for the experimental part: Larvae: Labelling and detection was carried out as previously described (Nguyen, P. D. et al. Muscle stem cells undergo extensive clonal drift during tissue growth via Meox1-mediated induction of G2 cell-cycle arrest. […] Cell culture: Cells were incubated for 1 h in media supplemented with 10 μM EdU. […] Cells were processed using the Click-iTTM EdU Alexa FluroTM 647 imaging Kit (Thermo Fisher) following the manufacturer's protocol. The mouse muscle cell line […]. Serial passaging and differentiation of myogenic cells isolated from dystrophic mouse muscle. Nature 270, 725 (1977) were cultured in growth media (Dulbecco's Modified Eagle Medium (4.5 g/l D-Glucose, No L Glutamine, No Sodium Pyruvate (Gibco))+20% Fetal Bovine Solution-One Shot (Gibco)+1% Glut Max 100x (Gibco)). Cells were maintained at 37° C., 5% CO2. Cells at 70% confluence, passage 8 were extracted from T75 flasks with 0.025% Tryspin EDTA (Gibco), neutralised in growth media, spun at 180×g for 5 min to pellet cells. The cells were then resuspended in 10 ml of fresh growth media. 500 μl of cells were plated on a 8-well on cover glass II (Sarstedt) chamber slide at a density of 1×10^3 cells/ml. Cells were left 4 h at 37° C. to re-attach. For drug treatments, the media were supplemented with appropriate doses and cultured for 6 h.

The next data set has as its system PAX7+ satellite cells. The data set is described as follows: Primary mouse myoblast mono- and co-cultures, PAX7+ satellite cell proliferation (EdU). Particulars: 100 nM inhibitor; for effect on macrophage-stimulated satellite cell proliferation: MB+macrophage co-culture; for effect on NAMPT-stimulated satellite cell proliferation: with hrNAMPT. The class given is cell-based. The protocol:
Larvae: Labelling and detection was carried out as previously described (Nguyen, P. D. et al. Muscle stem cells undergo extensive clonal drift during tissue growth via Meox1-mediated induction of G2 cell-cycle arrest. […] Cell culture: Cells were incubated for 1 h in media supplemented with 10 μM EdU. […] Cells were processed using the Click-iTTM EdU Alexa FluroTM 647 imaging Kit (Thermo Fisher) following the manufacturer's protocol. For isolation of primary mouse myoblasts, limb skeletal muscle from E17.5 C57/BL6J mice were minced and digested in 0.125% Trypsin at 37° C. for 20 min. […] Myoblasts were again depleted for fibroblasts prior to co-culturing on gelatin-coated 48 well plates in DMEM+20% FBS+10% L929-conditioned medium. 100,000 myoblasts were plated with either 7,500 MafB/c-Maf deficient (Maf-DKO) macrophages (Aziz, A., Soucie, E., Sarrazin, […]. MafB/c-Maf deficiency enables self-renewal of differentiated functional macrophages. […] For drug treatments, the media were supplemented with appropriate doses and cultured for 24 h.

For the next data set, the system named is Nampt. Briefly: NAD+/NADH levels after Nampt enzymatic inhibition. The class given is in vivo, zebrafish. Particulars: 10 μM.
A further data set deals with mmp9+/mpeg+ macrophages. Briefly: Metronidazole ablation of mmp9-expressing macrophages, TgBAC(mmp9:EGFP-NTR). The format is in vivo, zebrafish. The protocol:
as §1
In order to more directly implicate Cluster 2 macrophages in the regulation of regenerative muscle stem cell proliferation, we specifically ablated these cells during the repair process, using an alternative mmp9 promoter-driven transgenic line that expressed the nitroreductase enzyme fused to EGFP (TgBAC(mmp9:EGFP-NTR)^24). These larvae were subjected to a needle stab muscle injury at 4 dpf (0 dpi). At 1.75 dpi larvae were treated with 5 mM Mtz, a dosing that specifically ablated 77.94% of mmp9^+/mpeg^+-macrophages present in the injury zone (FIG. 10b-d). Specific ablation of these cells led to a significant skeletal muscle repair deficit (FIG. 3p-q) and a severe reduction in muscle stem cell proliferation to levels similar to those evident upon mpeg^+-dwelling macrophage ablation, documented above (FIG. 2f-h, FIG. 3r, FIG. 10e-g). Collectively, these analyses indicate that Cluster 2 contains a specific mmp9^+ muscle stem cell-associated, dwelling macrophage subset required for muscle stem cell proliferation during muscle regeneration

The test system of another data set is macrophages. The data set is described as follows: Nitroreductase-mediated macrophage ablation by metronidazole, Tg(mpeg1:GAL4FF/UAS:NfsB-mCherry). The class given is in vivo, zebrafish. As for the experimental part: as §1
The next data set relates to larval zebrafish. The data set is described as follows: Tolerability of metronidazole in larval zebrafish. The class given is in vivo. To be noted: 10 mM Mtz. As for the experimental part:
as §1

Entries after “also recorded” stand apart in the source; their conditions may differ.

In the case of `CCCCOCCOc1ccc(-c2ccc3c(c2)/C=C(/C(=O)Nc2ccc([S@@+]([O-])Cc4cncn4CCC)cc2)CCCN3CC(C)C)cc1` [CVC, cenicriviroc, reference compound], in data set [1], the “muscle regeneration (birefringence)” value is on record as “marked regeneration deficit; also recorded: highly significant regeneration deficit”. Further, in data set [2], the “wound site muscle stem cell proliferation” value is given as “proliferation is inhibited by CVC addition; also recorded: resulted in a proliferation deficit; also recorded: reduction in the proliferation of pax3a^+ myogenic stem cells; also recorded: reduction in the proliferation of par3a^+ myogenic stem cells”. In the data set with C2C12 myoblasts, the “effect on NAMPT-induced myoblast proliferation” value is listed as “abolishes NAMPT's pro-proliferative response; also recorded: proliferative response was blocked”. In the data set on PAX7+ satellite cells, the “effect on macrophage-stimulated satellite cell proliferation” value is given as “a response that is inhibited; also recorded: reduced satellite cell proliferation in MB+MΦ culture conditions to levels evident in MB alone or MB+3T3 cultures” and the “effect on NAMPT-stimulated satellite cell proliferation” value is “pro-proliferative response is abolished; also recorded: an effect that was abolished”.

Consider `N#CN=C(NCCCCCCOc1ccc(Cl)cc1)Nc1ccncc1` [GMX1778, reference compound], for which the “wound site muscle stem cell proliferation” value in data set [2] is listed as “had no effect on muscle stem cell proliferation in the injury zone; also recorded: did not alter muscle stem cell proliferation”. Besides, the “larval NAD+/NADH levels” value with Nampt is listed as “severe reduction in larval NAD^+/NADH levels”. Also, the “myoblast proliferation, factor added alone” value in the data set on C2C12 myoblasts (6 h in growth media) was “no negative effect on the basal level of C2C12 proliferation”. For the same molecule, the “effect on NAMPT-induced myoblast proliferation” value in the data set on C2C12 myoblasts is listed as “does not impact its effect on myoblast proliferation; also recorded: did not affect the increased myoblast proliferation”.

With `Cc1ncc([N+](=O)[O-])n1CCO` [Mtz, metronidazole], the “ablation of mmp9+/mpeg+ macrophages” value in the data set on mmp9+/mpeg+ macrophages (5 mM Mtz at 1.75 dpi) came to 77.94%. Besides, in the data set on mmp9+/mpeg+ macrophages (Mtz treated), the “number of mmp9+/mpeg+ macrophages in injury zone” value stood at 2.18±1.19 and the “number of mmp9-/mpeg+ macrophages in injury zone” value is on record as 6.65±1.50. Moreover, the “time to start of macrophage ablation after Mtz addition” value in the data set on macrophages (5 mM Mtz) is given as 3 h. In the data set with macrophages (5 mM Mtz for 24 h from 4 dpf, trunk macrophages at 5 dpf), the macrophage ablation turned out to be 77%. In addition, in the data set on macrophages (Mtz), the “time until majority of trunk macrophages ablated” value is 10 to 13 h. Moreover, in the data set with larval zebrafish, the “lethality, needle stab injured larvae” value was “significant lethality” and the “tolerability, uninjured larvae” value was “able to tolerate”.

As for maraviroc [MVC, reference compound], the “muscle regeneration (birefringence)” value in data set [1] is recorded as “marked regeneration deficit; also recorded: highly significant regeneration deficit”. For the same molecule, the “wound site muscle stem cell proliferation” value in data set [2] is recorded as “reduction in the proliferation of pax3a^+ myogenic stem cells; also recorded: reduction in the proliferation of par3a^+ myogenic stem cells”. In the data set with C2C12 myoblasts, the “effect on NAMPT-induced myoblast proliferation” value was “abolishes NAMPT's pro-proliferative response; also recorded: proliferative response was blocked”. In the data set on PAX7+ satellite cells, the “effect on macrophage-stimulated satellite cell proliferation” value is reported as “pro-proliferative response is abolished” and the “effect on NAMPT-stimulated satellite cell proliferation” value was “an effect that was abolished”.
